Reference: US20260285853A1, “COMPOUNDS AND METHODS FOR MODULATING SPLICING” (REMIX THERAPEUTICS INC., priority 2023, published 2026)

Tests used:
Type in all cases: cell-based
HTT mRNA [1] = assay: Splicing RT-qPCR assay (THP), Table 2A; conditions: Table 2A (THP); for AC50: AJ mRNA increase, read-out: HTT AJ (increase in alternative junction mRNA, AC50); for IC50: CJ mRNA decrease, read-out: HTT CJ (decrease in canonical junction mRNA, IC50)
MYB mRNA [2] = assay: Splicing RT-qPCR assay (THP), Table 2A; conditions: Table 2A (THP); for AC50: AJ mRNA increase, read-out: MYB AJ (increase in alternative junction mRNA, AC50); for IC50: CJ mRNA decrease, read-out: MYB CJ (decrease in canonical junction mRNA, IC50)
HTT mRNA [3] = assay: Gene panel canonical junction qPCR assay, decrease in CJ mRNA, Table 3; conditions: decrease in canonical junction (CJ) mRNA, gene panel qPCR, Table 3
Procedure, shortened: (§1)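 IC50 is the concentration giving 50% response in decrease of the canonical junction transcript, fitted with a 4-parameter logistic equation. Transcripts were quantified by RT-qPCR in A673 or K562 cells after 24 h exposure to compounds dosed up to 10 uM in 3-fold steps.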

MYB mRNA [4] = assay: as above; conditions: decrease in canonical junction (CJ) mRNA, gene panel qPCR, Table 3
Procedure, shortened: as §1

[5] = test system: SH-SY5Y (human neuroblastoma) cells; assay: Cell viability, Cell Titer Glo 2.0 assay; conditions: read-out: Viability SHSY5Y.3 GI50
Procedure, shortened: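 Steps: serial DMSO dilution of compound, 1:100 dilution into medium, addition to cells (0.1% DMSO final). Incubate 72 h at 37 °C, 5% CO2. Assay with CellTiter-Glo 2.0 reagent.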

Row | SMILES | AC50 (HTT mRNA [1]) | IC50 (HTT mRNA [1]) | AC50 (MYB mRNA [2]) | IC50 (MYB mRNA [2]) | IC50 (HTT mRNA [3]) | IC50 (MYB mRNA [4]) | GI50 [5]
1 | CCNC1CCN(c2ccc(C(=O)Nc3cn4cc(C)nc(C)c4c3F)c3nn(C)cc23)CC1 [Compound 523, 4-[4-(ethylamino)-1-piperidyl]-N-(8-fluoro-1,3-dimethyl-pyrrolo[1,2-a]pyrazin-7-yl)-2-methyl-indazole-7-carboxamide] | 1 to 10 µM | 1 to 10 µM | 1 to 10 µM | 1 to 10 µM | 1 to 10 µM | 1 to 10 µM | 1 to 10 µM
2 | COc1nc2nc(C)cn2cc1NC(=O)c1ccc(N2CCC(NC3CC3)CC2)c2cn(C)nc12 [Compound 524, 4-[4-(cyclopropyl-amino)-1-piperidyl]-N-(7-methoxy-2-methylimidazo-[1,2-a]-pyrimidin-6-yl)-2-methyl-indazole-7-carboxamide] | 1 to 10 µM | 1 to 10 µM | < 0.1 µM | < 0.1 µM | 1 to 10 µM | < 0.1 µM | 0.1 to 1 µM
3 | Cc1cn2cc(NC(=O)c3ccc(N4CC5CNCC5C4)c4cn(C)nc34)nc2c(C)n1 (stereo not drawn) [Compound 526] | 1 to 10 µM | 1 to 10 µM | 1 to 10 µM | 1 to 10 µM | 1 to 10 µM | 1 to 10 µM | 1 to 10 µM
4 | CNCC1CCN(c2ccc(C(=O)Nc3cn4cc(C)nc(C)c4n3)c3nn(C)cc23)C1 (stereo not drawn) [Compound 527] | 0.1 to 1 µM | 0.1 to 1 µM | 0.1 to 1 µM | 0.1 to 1 µM | 0.1 to 1 µM | 0.1 to 1 µM | 0.1 to 1 µM
5 | Cc1cn2cc(NC(=O)c3ccc(N4CCC(N5CCNCC5)C4)c4cn(C)nc34)nc2c(C)n1 (stereo not drawn) [Compound 528] | 0.1 to 1 µM | 0.1 to 1 µM | 0.1 to 1 µM | 0.1 to 1 µM | 0.1 to 1 µM | 0.1 to 1 µM | 0.1 to 1 µM
6 | Cc1cn2cc(NC(=O)c3ccc(N4CCC5(CCCN5)CC4)c4cn(C)nc34)nc2c(C)n1 [Compound 529] | > 10 µM | > 10 µM | 0.1 to 1 µM | 0.1 to 1 µM | > 10 µM | 0.1 to 1 µM | 1 to 10 µM
7 | Cc1cn2cc(NC(=O)c3ccc(N4CCC5NCC5C4)c4cn(C)nc34)nc2c(C)n1 (stereo not drawn) [Compound 530] | > 10 µM | > 10 µM | > 10 µM | 1 to 10 µM | > 10 µM | 1 to 10 µM | > 10 µM
8 | Cc1cn2cc(NC(=O)c3ccc(N4CCC5NCCC5C4)c4cn(C)nc34)nc2c(C)n1 (stereo not drawn) [Compound 531] | > 10 µM | > 10 µM | 1 to 10 µM | 1 to 10 µM | > 10 µM | 1 to 10 µM | 1 to 10 µM
9 | CNCC1CCN(c2ccc(C(=O)Nc3cn4cc(C)nc(C)c4n3)c3nn(C)cc23)CC1 [Compound 532] | 0.1 to 1 µM | 0.1 to 1 µM | 0.1 to 1 µM | 0.1 to 1 µM | 0.1 to 1 µM | 0.1 to 1 µM | 0.1 to 1 µM
10 | Cc1cn2cc(NC(=O)c3ccc(N4CCN(C5CNC5)CC4)c4cn(C)nc34)nc2c(C)n1 [Compound 533] | 0.1 to 1 µM | 0.1 to 1 µM | 0.1 to 1 µM | 0.1 to 1 µM | 0.1 to 1 µM | 0.1 to 1 µM | 0.1 to 1 µM
11 | CNCC1CCCN(c2ccc(C(=O)Nc3cn4cc(C)nc(C)c4n3)c3nn(C)cc23)C1 (stereo not drawn) [Compound 534] | > 10 µM | > 10 µM | > 10 µM | > 10 µM | > 10 µM | > 10 µM | > 10 µM
12 | Cc1cn2cc(NC(=O)c3ccc(N4CCNC(C)CC4)c4cn(C)nc34)nc2c(C)n1 (stereo not drawn) [Compound 535] | 1 to 10 µM | 1 to 10 µM | 1 to 10 µM | 1 to 10 µM | 1 to 10 µM | 1 to 10 µM | 1 to 10 µM
13 | Cc1cn2cc(NC(=O)c3ccc(NC4CCCNCC4)c4cn(C)nc34)nc2c(C)n1 (stereo not drawn) [Compound 536] | > 10 µM | > 10 µM | > 10 µM | > 10 µM | > 10 µM | > 10 µM | > 10 µM
14 | Cc1cn2cc(NC(=O)c3ccc(OC4CCNC4)c4cn(C)nc34)nc2c(C)n1 (stereo not drawn) [Compound 537] | > 10 µM | > 10 µM | > 10 µM | > 10 µM | > 10 µM | > 10 µM | > 10 µM
15 | CNCC1CCN(c2ccc(C(=O)Nc3cc4cn(C)nc4cc3OC)c3nn(C)cc23)C1 (stereo not drawn) [Compound 538] | > 10 µM | > 10 µM | 0.1 to 1 µM | 0.1 to 1 µM | > 10 µM | 0.1 to 1 µM | 1 to 10 µM
